Consider 11 compounds from PMC3525482 (Journal of inorganic biochemistry, 2012).

Like-named read-outs stand apart in the source and are kept apart here.

The target of one assay is Recombinant human FIH-1 (Homo sapiens, UniProt Q9NWT6). The assay is described as follows: FIH dose-response activity assay. In kind it is biochemical.
The target of assay [1] is FIH. As to conditions: cited from earlier work.
The subject of assay [2] is FIH. The settings on record: read-out: KM (Michaelis constant for αKG), FIH; cited from earlier work.
In another assay the target is Recombinant human PHD2 (Homo sapiens, UniProt Q9GZT9). The assay is described as follows: PHD2 dose-response activity assay. In kind it is biochemical. As to conditions: sub-saturating αKG.
Sequence of Recombinant human PHD2 (Q9GZT9 177-426): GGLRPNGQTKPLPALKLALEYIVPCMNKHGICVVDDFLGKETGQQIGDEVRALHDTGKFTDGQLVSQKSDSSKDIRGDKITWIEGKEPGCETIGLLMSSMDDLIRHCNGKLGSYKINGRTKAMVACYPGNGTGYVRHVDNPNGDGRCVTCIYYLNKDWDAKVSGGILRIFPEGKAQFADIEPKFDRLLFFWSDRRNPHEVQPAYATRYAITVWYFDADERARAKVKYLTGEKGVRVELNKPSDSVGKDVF

Sequence of Recombinant human FIH-1 (Q9NWT6 whole entry): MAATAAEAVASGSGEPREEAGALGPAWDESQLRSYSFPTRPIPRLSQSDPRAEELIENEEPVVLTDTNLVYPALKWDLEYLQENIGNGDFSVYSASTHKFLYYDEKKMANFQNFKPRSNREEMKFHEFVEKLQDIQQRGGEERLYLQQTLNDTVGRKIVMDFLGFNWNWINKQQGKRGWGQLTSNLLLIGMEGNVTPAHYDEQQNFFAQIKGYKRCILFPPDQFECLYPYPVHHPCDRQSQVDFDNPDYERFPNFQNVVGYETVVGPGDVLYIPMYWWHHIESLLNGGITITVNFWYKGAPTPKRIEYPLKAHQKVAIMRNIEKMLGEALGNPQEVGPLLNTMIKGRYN

`O=[N+]([O-])c1ccc(O)c(O)c1` [Compound 8, 4-Nitrocatechol]: the IC50 (commonly the concentration that gives 50% inhibition) on Recombinant human FIH-1 is 10 µM.
The same measure, in the same setting: under `Oc1cccnc1O` [Compound 3, 2,3-Dihydroxypyridine] stands 75 µM.
With N-oxalyl-D-phenylalanine, the inhibitory constant (Ki) – broadly, a dissociation constant, usually derived from enzyme kinetics or from competition with a known ligand – at FIH [1] is 90 µM.
On to `O=C(O)CCC(=O)C(=O)O` [αKG, alpha-ketoglutarate], for which the Km – broadly, the substrate concentration at which the rate is half of its maximum – with FIH [2] is 22 ± 6 µM.
Take `O=C(O)c1cc(=O)c(O)co1` [Compound 5, 5-Hydroxy-4-oxo-4H-pyran-2-carboxylic acid]: the IC50 on Recombinant human FIH-1 is 50 µM.
Still for that read-out and setting: for `Cc1ccc(O)c(O)c1` [Compound 9, 4-Methylcatechol] the value was 50 µM; for `O=c1cc(CO)occ1O` [Compound 4, 5-Hydroxy-2-hydroxymethyl-4-pyrone], 170 µM.
For `Cc1c(O)c(=O)ccn1C` [Compound 7, 3-Hydroxy-1,2-dimethyl-4(1H)-pyridinone], the IC50 on Recombinant human FIH-1 is 30 µM.
For `Cc1occc(=O)c1O` [Compound 6, 3-Hydroxy-2-methyl-4-pyrone], the IC50 on Recombinant human FIH-1 amounted to 70 µM.
Regarding `CC(C)(C)c1ccc(O)c(O)c1` [Compound 10, 4-tert-Butylcatechol], the IC50 at Recombinant human FIH-1 was 120 µM.
`Cc1ccc(C#N)c(=O)[nH]1` [Compound 1, 3-Cyano-6-methyl-2(H) pyridinone]: on Recombinant human PHD2, the “inhibition toward PHD2” value is recorded as “no inhibition”. In addition, the “inhibition toward FIH” value on Recombinant human FIH-1 (dose response, sub-saturating αKG) was “no inhibition”. Besides, the IC50 on Recombinant human FIH-1 (read-out: FIH IC50, 10 µM αKG, 0.5 µM FIH, 50 mM HEPES pH 7.50, 37.0 °C) is > 1000 µM.
